Reference: ChEMBL document CHEMBL1151454, “Failures in clinical treatment of Staphylococcus aureus Infection with daptomycin are associated with alterations in surface charge, membrane phospholipid asymmetry, and drug binding” (Antimicrob Agents Chemother, 2008)
≈ marks a conversion by molar mass, not a printed value. Calls of active or inactive are those of the source. The rule behind the calls is not given here. Non-standard residues stand in square brackets, D forms with d. Residues, ends and D or L forms follow the SMILES beside them. *: point of attachment. NHCH2CH2OH = OCCN*; For = O=C*

Key:
Staphylococcus aureus [1] = test: Induction of autolysis in daptomycin-nonsusceptible Staphylococcus aureus isolate 701 bloodstream form isolated from patient 50 ug/ml within 24 hrs; assay type: functional, organism-based
Staphylococcus aureus [2] = test: Antibacterial activity against daptomycin-nonsusceptible Staphylococcus aureus isolate 701 bloodstream form isolated from patient with endocarditis assessed as inhibition on heterogeneous subpopulation survival rate at 0.25 and 1 ug/ml after 48 hrs; assay type: functional, organism-based
Staphylococcus aureus [3] = test: Induction of autolysis in daptomycin-nonsusceptible Staphylococcus aureus isolate 703 bloodstream form isolated from patient 50 ug/ml measured at 18 hrs; assay type: functional, organism-based
Staphylococcus aureus [4] = test: Induction of autolysis in methicillin-susceptible Staphylococcus aureus isolate 616 bloodstream form isolated from patient 50 ug/ml within 24 hrs; assay type: functional, organism-based
Staphylococcus aureus [5] = test: Antibacterial activity against daptomycin-nonsusceptible Staphylococcus aureus isolate 703 bloodstream form isolated from patient with endocarditis assessed as inhibition on heterogeneous subpopulation survival rate at 0.25 and 1 ug/ml after 48 hrs; assay type: functional, organism-based
Staphylococcus aureus [6] = test: Induction of autolysis in daptomycin-transitional Staphylococcus aureus isolate 629 bloodstream form isolated from patient 50 ug/ml within 24 hrs; assay type: functional, organism-based
Staphylococcus aureus [7] = test: Antibacterial activity against methicillin-susceptible Staphylococcus aureus isolate 616 bloodstream form isolated from patient with endocarditis assessed as inhibition on heterogeneous subpopulation survival rate at 0.25 and 1 ug/ml after 48 hrs; assay type: functional, organism-based
Staphylococcus aureus [8] = test: Induction of autolysis in daptomycin-nonsusceptible Staphylococcus aureus isolate 703 bloodstream form isolated from patient 50 ug/ml within 24 hrs; assay type: functional, organism-based
Staphylococcus aureus [9] = test: Antibacterial activity against daptomycin-transitional Staphylococcus aureus isolate 629 bloodstream form isolated from patient with endocarditis assessed as inhibition on heterogeneous subpopulation survival rate at 0.25 and 1 ug/ml after 48 hrs; assay type: functional, organism-based
Staphylococcus aureus [10] = test: Antibacterial activity against daptomycin-nonsusceptible Staphylococcus aureus isolate 703 bloodstream form isolated from patient with endocarditis after 18 hrs by microdilution technique; assay type: functional; conditions: Staphylococcus aureus, 703, 18 h
Staphylococcus aureus [11] = test: Drug binding to daptomycin-transitional Staphylococcus aureus isolate 629 bloodstream form isolated from patient with endocarditis at 32 ug after 10 mins by radial diffusion assay; assay type: ADME, organism-based
Staphylococcus aureus [12] = test: Drug binding to methicillin-susceptible Staphylococcus aureus isolate 616 bloodstream form isolated from patient with endocarditis at 32 ug after 10 mins by radial diffusion assay; assay type: ADME, organism-based
Staphylococcus aureus [13] = test: Antibacterial activity against daptomycin-nonsusceptible Staphylococcus aureus isolate 701 bloodstream form isolated from patient with endocarditis after 18 hrs by microdilution technique; assay type: functional; conditions: Staphylococcus aureus, 701, 18 h
Staphylococcus aureus [14] = test: Drug binding to daptomycin-nonsusceptible Staphylococcus aureus isolate 701 bloodstream form isolated from patient with endocarditis at 32 ug after 10 mins by radial diffusion assay; assay type: ADME, organism-based
Staphylococcus aureus [15] = test: Antibacterial activity against methicillin-susceptible Staphylococcus aureus isolate 616 bloodstream form isolated from patient with endocarditis after 18 hrs by microdilution technique; assay type: functional; conditions: Staphylococcus aureus, 616, 18 h
Staphylococcus aureus [16] = test: Drug binding to daptomycin-nonsusceptible Staphylococcus aureus isolate 703 bloodstream form isolated from patient with endocarditis at 32 ug after 10 mins by radial diffusion assay; assay type: ADME, organism-based
Staphylococcus aureus [17] = test: Antibacterial activity against daptomycin-transitional Staphylococcus aureus isolate 629 bloodstream form isolated from patient with endocarditis after 18 hrs by microdilution technique; assay type: functional; conditions: Staphylococcus aureus, 629, 18 h

Structure (SMILES)	Activity (Staphylococcus aureus [1])	Activity (Staphylococcus aureus [2])	Activity (Staphylococcus aureus [3])	Activity (Staphylococcus aureus [4])	Activity (Staphylococcus aureus [5])	Activity (Staphylococcus aureus [6])	Activity (Staphylococcus aureus [7])	Activity (Staphylococcus aureus [8])	Activity (Staphylococcus aureus [9])	MIC (Staphylococcus aureus [10]) [µg/mL]	Drug uptake (Staphylococcus aureus [11]) [µg/mL]	Drug uptake (Staphylococcus aureus [12]) [µg/mL]	MIC (Staphylococcus aureus [13]) [µg/mL]	Drug uptake (Staphylococcus aureus [14]) [µg/mL]	MIC (Staphylococcus aureus [15]) [µg/mL]	Drug uptake (Staphylococcus aureus [16]) [µg/mL]	MIC (Staphylococcus aureus [17]) [µg/mL]
CN[C@H](CC(C)C)C(=O)N[C@H]1C(=O)N[C@@H](CC(N)=O)C(=O)N[C@H]2C(=O)N[C@H]3C(=O)N[C@H](C(=O)N[C@H](C(=O)O)c4cc(O)cc(O)c4-c4cc3ccc4O)[C@H](O)c3ccc(c(Cl)c3)Oc3cc2cc(c3O[C@@H]2O[C@H](CO)[C@@H](O)[C@H](O)[C@H]2O[C@H]2C[C@](C)(N)[C@H](O)[C@H](C)O2)Oc2ccc(cc2Cl)[C@H]1O	inactive	inactive	inactive	Active	inactive	inactive	inactive	inactive	inactive	–	–	–	–	–	–	–	–
CC(C)C[C@@H](NC(=O)[C@H](C)NC(=O)CNC(=O)[C@@H](NC=O)C(C)C)C(=O)N[C@@H](C)C(=O)N[C@@H](C(=O)N[C@H](C(=O)N[C@@H](C(=O)N[C@@H](Cc1c[nH]c2ccccc12)C(=O)N[C@H](CC(C)C)C(=O)N[C@@H](Cc1c[nH]c2ccccc12)C(=O)N[C@H](CC(C)C)C(=O)N[C@@H](Cc1c[nH]c2ccccc12)C(=O)N[C@H](CC(C)C)C(=O)N[C@@H](Cc1c[nH]c2ccccc12)C(=O)NCCO)C(C)C)C(C)C)C(C)C [GRAMICIDIN D] (For-VGA[dL]A[dV]V[dV]W[dL]W[dL]W[dL]W-NHCH2CH2OH)	–	–	–	–	–	–	–	–	–	32 (≈ 17 µM)	10	12	32 (≈ 17 µM)	11	32 (≈ 17 µM)	9	32 (≈ 17 µM)
